From ChEMBL document CHEMBL3885861, “Open TG-GATES”

Species: Rattus norvegicus
Test: Open TG-GATES - Regimen: Single
Assay type: toxicity, organism-based, Sprague-Dawley
Design: regimen Single, gender Male, age 6 weeks
Settings: in vivo, po, 150 mg/kg, route gavage, dose level Middle; for APTT / Bas / Eos / Fbg / Hb / Ht / Lym / MCH / MCHC / MCV / Mono / Neu / PT / Plat / RBC / Ret / WBC: tissue Blood; for KIDNEY_L / KIDNEY_R / KIDNEY_TOTAL: tissue Kidney; for LIVER: tissue Liver; for A/G / ALP / ALT / AST / BUN / CRE / Ca / Cl / DBIL / GLC / IP / K / LDH / Na / PL / RALB / TBIL / TC / TG / TP / gamma-GTP: tissue Plasma

Compound `CCC1(c2ccccc2)C(=O)NC(=O)NC1=O` [PHENOBARBITAL] has a TERMINAL_BW (3 h) of 224.5 g, an APTT (3 h) of 19.1 s and a Bas (3 h) of 0.4%. For the same compound, the Eos (3 h) was 1%, the Fbg (3 h) was 217.2 mg/dL and the Hb (3 h) was 13.8 g/dL. For the same compound, the Ht (3 h) was 38.5%, the Lym (3 h) was 82.4% and the MCH (3 h) was 21.6 pg. The MCHC (3 h) was 35.8%, the MCV (3 h) was 60.4 fL and the Mono (3 h) was 3%. The Neu (3 h) was 12.6%, the PT (3 h) was 12 s and the Plat (3 h) was 129.5 x10_4/uL. It also gave an RBC (3 h) of 637.8 x10_4/ul, a Ret (3 h) of 7.8% and a WBC (3 h) of 81.1 x10_2/uL. For the same compound, the KIDNEY_L (3 h) was 1 g, the KIDNEY_R (3 h) was 1 g and the KIDNEY_TOTAL (3 h) was 2 g. It also gave an LIVER (3 h) of 10.3 g, an A/G (3 h) of 1.7 and an ALP (3 h) of 765.6 IU/L. The ALT (3 h) was 39 IU/L, the AST (3 h) was 66.4 IU/L and the BUN (3 h) was 8.8 mg/dL. For the same compound, the CRE (3 h) was 0.3 mg/dL, the Ca (3 h) was 10.7 mg/dL and the Cl (3 h) was 101.2 meq/L. For the same compound, the DBIL (3 h) was 0.064 mg/dL, the GLC (3 h) was 184.4 mg/dL and the IP (3 h) was 9.8 mg/dL. It also gave a K (3 h) of 4.4 meq/L, an LDH (3 h) of 149.4 IU/L and a Na (3 h) of 139.8 meq/L. The PL (3 h) was 145.4 mg/dL, the RALB (3 h) was 3.3 g/dL and the TBIL (3 h) was 0.1 mg/dL. The TC (3 h) was 71.4 mg/dL, the TG (3 h) was 73.2 mg/dL and the TP (3 h) was 5.3 g/dL. It also gave a gamma-GTP (3 h) of 1 IU/L, a TERMINAL_BW (6 h) of 221.3 g and an APTT (6 h) of 20.4 s. It also gave a Bas (6 h) of 0.2%, an Eos (6 h) of 0.6% and a Fbg (6 h) of 226 mg/dL. The Hb (6 h) was 13.8 g/dL, the Ht (6 h) was 38.1% and the Lym (6 h) was 79%. For the same compound, the MCH (6 h) was 21.5 pg, the MCHC (6 h) was 36.3% and the MCV (6 h) was 59.3 fL. For the same compound, the Mono (6 h) was 3%, the Neu (6 h) was 15.4% and the PT (6 h) was 12 s. The Plat (6 h) was 125.8 x10_4/uL, the RBC (6 h) was 643 x10_4/ul and the Ret (6 h) was 7.6%. For the same compound, the WBC (6 h) was 90 x10_2/uL, the KIDNEY_L (6 h) was 1 g and the KIDNEY_R (6 h) was 1 g. The KIDNEY_TOTAL (6 h) was 2 g, the LIVER (6 h) was 9.3 g and the A/G (6 h) was 1.5. The ALP (6 h) was 756.8 IU/L, the ALT (6 h) was 28.4 IU/L and the AST (6 h) was 60.8 IU/L. The BUN (6 h) was 8.2 mg/dL, the CRE (6 h) was 0.4 mg/dL and the Ca (6 h) was 10.7 mg/dL. It also gave a Cl (6 h) of 100.6 meq/L, a DBIL (6 h) of 0.07 mg/dL and a GLC (6 h) of 178.2 mg/dL. The IP (6 h) was 9.7 mg/dL, the K (6 h) was 4.2 meq/L and the LDH (6 h) was 178.4 IU/L. The Na (6 h) was 139.6 meq/L, the PL (6 h) was 137 mg/dL and the RALB (6 h) was 3.2 g/dL. For the same compound, the TBIL (6 h) was 0.1 mg/dL, the TC (6 h) was 69.2 mg/dL and the TG (6 h) was 67.6 mg/dL. For the same compound, the TP (6 h) was 5.3 g/dL, the gamma-GTP (6 h) was 1.2 IU/L and the TERMINAL_BW (9 h) was 219.3 g. It also gave an APTT (9 h) of 20.6 s, a Bas (9 h) of 0% and an Eos (9 h) of 0.4%. For the same compound, the Fbg (9 h) was 215 mg/dL, the Hb (9 h) was 14.1 g/dL and the Ht (9 h) was 38.6%. The Lym (9 h) was 76.6%, the MCH (9 h) was 22.1 pg and the MCHC (9 h) was 36.5%. It also gave an MCV (9 h) of 60.5 fL, a Mono (9 h) of 3% and a Neu (9 h) of 19%. For the same compound, the PT (9 h) was 12.2 s, the Plat (9 h) was 121.6 x10_4/uL and the RBC (9 h) was 637.8 x10_4/ul. It also gave a Ret (9 h) of 7.7%, a WBC (9 h) of 96.4 x10_2/uL and a KIDNEY_L (9 h) of 1 g. The KIDNEY_R (9 h) was 1 g, the KIDNEY_TOTAL (9 h) was 2 g and the LIVER (9 h) was 9.3 g. The A/G (9 h) was 1.7, the ALP (9 h) was 593.2 IU/L and the ALT (9 h) was 26.6 IU/L. The AST (9 h) was 58.6 IU/L, the BUN (9 h) was 6.8 mg/dL and the CRE (9 h) was 0.3 mg/dL. It also gave a Ca (9 h) of 10.4 mg/dL, a Cl (9 h) of 100 meq/L and a DBIL (9 h) of 0.066 mg/dL. The GLC (9 h) was 182 mg/dL, the IP (9 h) was 9.5 mg/dL and the K (9 h) was 4.1 meq/L. For the same compound, the LDH (9 h) was 136 IU/L, the Na (9 h) was 139.8 meq/L and the PL (9 h) was 138.8 mg/dL. For the same compound, the RALB (9 h) was 3.3 g/dL, the TBIL (9 h) was 0.1 mg/dL and the TC (9 h) was 70 mg/dL. It also gave a TG (9 h) of 39 mg/dL, a TP (9 h) of 5.2 g/dL and a gamma-GTP (9 h) of 1 IU/L. The TERMINAL_BW (24 h) was 234 g, the APTT (24 h) was 19.2 s and the Bas (24 h) was 0.8%. The Eos (24 h) was 1%, the Fbg (24 h) was 214.2 mg/dL and the Hb (24 h) was 13.9 g/dL. It also gave a Ht (24 h) of 38.4%, a Lym (24 h) of 79.6% and an MCH (24 h) of 21.8 pg. For the same compound, the MCHC (24 h) was 36.2%, the MCV (24 h) was 60.3 fL and the Mono (24 h) was 2.2%. It also gave a Neu (24 h) of 16%, a PT (24 h) of 11.7 s and a Plat (24 h) of 125.7 x10_4/uL. It also gave an RBC (24 h) of 637 x10_4/ul, a Ret (24 h) of 6.5% and a WBC (24 h) of 106.3 x10_2/uL. For the same compound, the KIDNEY_L (24 h) was 1.1 g, the KIDNEY_R (24 h) was 1 g and the KIDNEY_TOTAL (24 h) was 2.1 g. It also gave an LIVER (24 h) of 11.5 g, an A/G (24 h) of 1.6 and an ALP (24 h) of 882.2 IU/L. The ALT (24 h) was 33.8 IU/L, the AST (24 h) was 75.6 IU/L and the BUN (24 h) was 16 mg/dL. It also gave a CRE (24 h) of 0.4 mg/dL, a Ca (24 h) of 10.8 mg/dL and a Cl (24 h) of 102 meq/L. For the same compound, the DBIL (24 h) was 0.058 mg/dL, the GLC (24 h) was 180.6 mg/dL and the IP (24 h) was 7.6 mg/dL. For the same compound, the K (24 h) was 4.2 meq/L, the LDH (24 h) was 264.4 IU/L and the Na (24 h) was 142.4 meq/L. The PL (24 h) was 142.2 mg/dL, the RALB (24 h) was 3.5 g/dL and the TBIL (24 h) was 0.1 mg/dL. For the same compound, the TC (24 h) was 72 mg/dL, the TG (24 h) was 113.2 mg/dL and the TP (24 h) was 5.7 g/dL. It also gave a gamma-GTP (24 h) of 1.2 IU/L.
